This passage reports melting point results from a melting point compilation (Tetko et al.; mined from patent text by program, amines drawn as free bases though some values may be those of a salt).

Bounds are passed on as bounds.

In general, melting point refers to the temperature of the solid-liquid transition. As for `Cn1c(C(F)(F)F)cc(=O)n(-c2nc(Cl)c(O)cc2F)c1=O`, the melting point is 189 to 192 °C.
In turn, `Cc1cc(Oc2c(Cl)cc(C(F)(F)F)cc2Cl)nn1C(N)=O` displayed a melting point of 152 to 154 °C.
In the case of `Cc1ccc(NC(=O)Nc2ccc(-c3c(Cc4ccccc4)sc4ncnc(N)c34)cc2)cc1`, the melting point lay in the range of 169 to 173 °C.
`O=C(Cn1cnc2ccccc21)Nc1ccc(-n2nc(C(F)(F)F)cc2C2CC2)cc1` came in with a melting point of 178 to 184 °C.
Consider `COc1ccc(NS(=O)(=O)C(F)(F)F)cc1CC1C(=O)c2cc(OCc3nc4cc(F)c(F)cc4s3)ccc2OC1(C)C` (stereo not given), for which the melting point was in the range of 198 to 200 °C.
As for `Cc1ccc(S(=O)(=O)Cc2c(-c3cc([N+](=O)[O-])cc([N+](=O)[O-])c3)nn(C)c2O)cc1`, the melting point is 192 to 194 °C.
As for `CC1(C)CCC(C)(C)c2cc(-c3cc(-c4ccc(C(=O)O)cc4)ccc3OCCCCCCCCO)ccc21`, the figure is 155 to 160 °C.
As for `CCCCCOC(=O)NS(=O)(=O)CCc1cc(OCCCC)nn1Cc1ccc(Cl)cc1Cl`, the melting point was 91 to 93 °C.
`COC(=O)c1ncn2c1[C@@H]1CCCN1C(=O)c1sccc1-2` displayed a melting point of 192 to 193 °C.
As for `Cc1ccc(S(=O)(=O)N=CNCc2ccc(-c3csc(N=C(N)N)n3)o2)cc1`, the figure is 141 to 142 °C; as for `O=CN1CCN(c2nc3cccccc-3n2)CC1`, 170 to 173 °C; as for `CC1CC(=O)NN=C1c1ccc(OCCCN)cc1` (stereo not given), 136 to 138 °C.
Turning to `CN(C)C=CC(=O)c1cccc(C(F)(F)F)c1`, the melting point fell in the range of 60.5 to 62 °C.
Next, `CC1(C(=O)C2(C)COCOC2)COCOC1`: 100 to 102 °C.
As for `CC[C@H](C)[C@H](NC(=O)c1ccc(C)cc1)NC(=S)Nc1cccnc1`, the figure is 102 to 104 °C.
As for `O=C(/C=C/c1ccc(O)c(C(F)(F)F)c1)/C=C/c1ccc(O)c(C(F)(F)F)c1`, the figure is 233 to 234 °C; as for `CCCCNS(=O)(=O)c1ccc(N2CCC3(CC2)OCCO3)cc1`, 122 to 124 °C; as for `CSC(=S)NCc1cc(=O)c(OC(c2ccccc2)c2ccccc2)cn1OC(c1ccccc1)c1ccccc1`, 176 to 178 °C.
On to `CS(=O)(=O)Nc1ccc(OCCBr)c(Cl)c1`, for which the melting point was 96 to 98 °C.
Take `Cc1c(C(=O)O)cnn1-c1c(Cl)cccc1Cl`: the melting point was in the range of 180 to 182 °C.
As for `CCCCCCCCCCCCCCc1ccc(CC)c(O)c1`, the figure is 59 to 60 °C; as for `O=C(NCCc1ccnc(-c2nc(=O)c3ccccc3s2)c1)c1ccccc1`, 217 to 219 °C.
Next, `N#CC=C1CCN(c2ccc(N3C[C@H](CNC(=O)CO)OC3=O)cc2F)CC1`: 68 to 70 °C; `COc1ccc2c(c1)c(CC(=O)OC(OC(C)=O)c1ccccc1)c(C)n2C(=O)c1ccc(Cl)cc1` (stereo not given): 93 to 94 °C; `Cc1cc(OC2CCN(C(=O)OC(C)(C)C)CC2)ccc1[N+](=O)[O-]`: 104 to 106 °C.
As for `COc1ccc2c3c(ccc2c1)CC(=O)C3`, the figure is 138 to 140 °C.
In turn, `CC(C)/[N+]([O-])=C/c1ccc(O)cc1O` displayed a melting point of 155 to 157 °C.
Consider `COc1ccc(N2C(=O)C(O)=C(C(=O)c3ccc(C(C)C)cc3)C2c2ccc(OC(F)(F)F)cc2)nn1` (stereo not given), for which the melting point came out at 271 °C.
`N#Cc1ccc(-c2ccc(OCCCCBr)cc2)cc1` had a melting point of 62.5 to 64 °C.
Next, `CC1(C)CC(=C(c2ccc(O)cc2)c2ccc(CCO)cc2)CC(C)(C)C1`: 159 to 160 °C; `O=C(O)CCCOc1ccc(-c2ccc(-c3c(Cc4ccccc4)sc4ccccc34)cc2)cc1Br`: 135 to 137 °C; `O=C(O)C1(Cc2ccccc2)CCN(Cc2ccccc2)CC1`: 262 °C.
Next, `COc1cc(C(=O)OCc2ccc3nc(N)nc(N)c3c2)cc(OC)c1OC`: 223 to 227 °C; `OCc1cccc(-c2nn(Cc3ccccc3)c3ccccc23)c1`: 98 to 99 °C.
Next, `CCOCc1nc(N)c2nccnc2n1`: 152 to 154 °C.
As for `COc1cc(Nc2nccc(C(C)(C)C)n2)cc(OC)c1OC`, the melting point came to 122 °C.
Take `CC(=O)OC1CCC2(C)C(=CC(=O)C3C2CCC2(C)C(C(C)CCCC(C)C)CCC32)C1` (stereo not given): the melting point was 151 to 154 °C.
As for `NCc1cccc(-c2csc(N=C(N)N)n2)n1`, the figure is 228 to 229 °C; as for `Fc1ccc(F)c(-c2coc3ccc(-c4nnc(S)o4)cc23)c1`, 206 to 207 °C; as for `Cc1ccc(S(=O)(=O)Cc2c(C#N)nn(-c3ccccc3)c2O)cc1`, 214 °C.
Compound `COC(=O)c1sc(-c2ccccc2)c(N)c1N` yielded a melting point of 148 to 150 °C.
Next, `CCCCCCCCCCC(=O)OCCCCCC(=O)CC(=O)c1ccccc1`: 37 to 38 °C; `COc1ccc(Br)c2c1C1C(=O)NC(=O)C1CC2` (stereo not given): 191 to 193 °C.
As to `COc1c(C)c(C)c(OC)c(CC[C@@]2(C)CO2)c1C`, the melting point was in the range of 47 to 48 °C.
In turn, `O=c1ccc2c(OS(=O)(=O)C(F)(F)F)cccc2o1` returned a melting point of 104 to 105 °C.
As for `CCOC(=O)c1cnc2c(I)cc(COC(C)=O)cc2c1O`, the figure is 119 to 123 °C; as for `O=C(O)CCC1CCN(CC(=O)OC2CCCCC2)CC1`, 85 to 88 °C.
Next, `c1cnc2ccc(Cn3nnc4ccc(-c5cnn(C6CCOCC6)c5)nc43)cc2c1`: 182 to 184 °C.
In the case of `CCc1c(C(=O)C(N)=O)c2c(OCC(=O)O)cc3c(c2n1Cc1ccccc1)CCCC3`, the melting point was 222 to 225 °C.
The compound `CC1=C(C(=O)OC(C)C)C(c2ccccc2F)c2c[nH]nc2N1` (stereo not given) registered a melting point of 218 to 220 °C.
Regarding `CC(=O)OCC1=C(C(=O)OC(c2ccccc2)c2ccccc2)N2C(=O)C(NC(=O)Cc3csc(-c4ncccc4O)n3)C2SC1` (stereo not given), the melting point lay in the range of 176 to 178 °C.
Next, `COc1cc2ccc(Br)cc2cc1C12CC3CC(CC(C3)C1)C2`: 164 to 168 °C; `CC#CCCn1ncc2c(OCC)c(C(=O)OCC)c(C)nc21`: 94 to 95 °C; `CC(=O)Nc1ccc(O)c(CN2CCC(NC(=O)c3ccccc3)CC2)c1`: 242 °C.
Next, `COc1ccc(C2(Cn3ccn(Cc4ccccc4)c3=O)CC2)cc1OC`: 110 °C; `COCCON1C(=O)C(c2c(C)cc(C)cc2C)C(=O)C12CCN(N(C)C)CC2` (stereo not given): 108 °C.
As for `O=C1OCc2ccccc2C1=NO`, the figure is 181 to 185 °C; as for `COc1ccccc1NC(=S)C1CCc2nc[nH]c2C1` (stereo not given), 218 to 219 °C; as for `Cc1cc(-c2cc(O)c(SCc3ccccc3)c(=O)o2)cc(C)c1O[Si](C)(C)C(C)(C)C`, 137 to 139 °C.
`CN1N=C(c2ccc3c(c2)N(S(C)(=O)=O)CCO3)CCC1=O` showed a melting point of 162 to 165 °C.
Next, `O=C(O)COc1ccc(SCc2ccc(-c3ccc(C(F)(F)F)cn3)cc2)c2c1CCCO2`: 178 to 179 °C; `COc1ccc(C(C#N)=NO)cc1`: 141 °C; `Clc1nc(Cl)c(-c2ccccc2)c(-c2ccccc2)n1`: 144 to 146 °C.
Compound `CCOC(=O)c1ccc(NC(=O)Nc2c(OC)ccc3c2C(C)(C)COC3(C)C)cc1` came in with a melting point of 147 to 149 °C.
As for `Cc1nc2cc(Oc3cc(-c4ccc(C(C)(C)C)cc4)ncn3)ccc2s1`, the figure is 163 to 165 °C; as for `Cc1cnc(OCC(O)CNC(C)(C)C)c2cc(Cl)ccc12` (stereo not given), 116 to 117 °C.
Next, `CCOC(=O)c1cc(O)c(C(=O)c2ccc(Cl)cc2)c([N+](=O)[O-])c1`: 188 to 192 °C.
As for `CC(C)(C)OC(=O)C(C(=O)O)c1cccc(N)c1` (stereo not given), the figure is 105 °C; as for `NC(=O)CNC(=O)c1cccc(-c2ccc3c(c2)N(c2cccc(Cl)c2Cl)CC3)c1`, 203 to 204 °C.
For the compound `CCOC(=O)c1ccc2c(SC(=O)N3CCSCC3)cccn2c1=O`, the melting point lay within 146 to 148 °C.
As for `CC(C)Oc1ccccc1N1CCN(Cc2cccc(CC3NC(=O)NC3=O)c2)CC1` (stereo not given), the figure is 178 to 181 °C; as for `COC(=O)c1ccc[nH]c1=O`, 148 to 151 °C.
In turn, `CCCCCCCCCCCCCCCCCC(CCC(=O)O)(CCC(=O)O)[N+](=O)[O-]` gave a melting point of 102 °C.
Next, `Nc1c(Cl)nc2ccccc2c1NCc1ccccn1`: 98 to 102 °C; `CC(C)c1cccc(C(C)C)c1NC(=O)CCCCCSc1nc2cnccc2[nH]1`: 96 to 98 °C; `Cc1[nH]c(C=O)c(C)c1C(=O)NCCC1CCCN1C` (stereo not given): 143 to 149 °C.
As for `CCc1nn(COC(N)=O)c(CC)c1Cc1cc(Cl)cc(Cl)c1`, the figure is 153 to 155 °C; as for `O=C=Nc1ccc(Oc2cccc(Cl)n2)cc1`, 96 to 97 °C; as for `CCOC1=NS(=O)C(C(N)=O)=C1Br` (stereo not given), 168 to 172 °C.
Next, `COc1ccc2c(c1)cc1cnc(Nc3ccc(N4CCOCC4)cc3OC)nn12`: 152 to 164 °C; `O=C(CCc1ccc(O)c(C=Nc2ccccc2O)c1)ON1C(=O)CCC1=O`: 170 °C; `CC(C)=CCOC(C)C1CC=C2C3=C(CCC21C)C1(C)CCC(O)C(C)(C)C1CC3` (stereo not given): 117 to 120 °C.
For `CCOC(=O)n1nc(-c2cccc(OC)c2)nc1-c1ccccc1CC`, the melting point lay within 80 to 82 °C.
Next, `CC(=O)OC1(C)CC(=O)OC(CCc2ccc(OCc3ccccc3)cc2)C1` (stereo not given): 98 to 101 °C; `O=C(O)c1[nH]c(=O)c2ccccc2c1-c1ccccc1`: > 300 °C; `NS(=O)(=O)c1cc(S(N)(=O)=O)c(C(Cl)=C(Cl)Cl)cc1NCc1ccccc1`: 188 to 190 °C.
Next, `COc1cc(CC2(Cc3ccnc(OC)c3)c3ccccc3-c3ncccc32)ccn1`: 138 to 140 °C.
As for `CC#CCOc1cc(N(C)c2ccccc2)ncn1`, the figure is 57.6 °C; as for `Cc1oc2ccccc2c1C(=O)O`, 171 to 176 °C.
Take `CN1CCC2(CC1)OCc1ccccc12`: the melting point was in the range of 76 to 77 °C.
